Assay results as given in patent US20230285504A1, “INHIBITION OF REPERFUSION INJURY WITH A PSD-95 INHIBITOR” (NONO INC., priority 2020, published 2023).
Entries after “also recorded” stand apart in the source; their conditions may differ. No end group written: not given here.

Legend:
[1] = In-vitro effect of alteplase (rt-PA) on nerinetide content in rat plasma (HPLC); format: in vitro ADME; conditions: 65 ug/ml nerinetide, 37 C, alteplase added over 60 minutes (22.5 ug/ml, 3 times and 6 times)
Procedure: (§1) A. LC/MS spectrum of nerinetide after incubation with plasmin in PBS. 10 uL aliquots of nerinetide (18 mg/mL) and plasmin (1 mg/mL) were incubated in 500 uL tubes of phosphate-buffered saline at 37 C for 5 min and the reaction stopped by cooling to −80C until tested. The various peaks correspond to the indicated fragments. Insert: Predicted trypsin cleavage sites and actual cleavage sites. (B,C) In-vitro effect of rt-PA on nerinetide content in rat (B) and human (C) plasma. Nerinetide was spiked into the plasma samples at t=0 at a concentration of 65 ug/ml, whereas alteplase (rt-PA) was administered as a 60 min infusion at the indicated concentration (D, E) In-vivo effect of the simultaneous administration of nerinetide and rt-PA on Cmax (D) and AUC (E) in the rat. The nerinetide bolus and alteplase (60 min infusion) were started simultaneously through two separate intravenous lines. Symbols represent mean±SD.
The concentration of 65 ug/ml of nerinetide represents the theoretical peak concentration in a 75 kg person receiving 2.6 mg/kg dose as a bolus. Alteplase was added over 60 minutes to simulate the clinical dosing approach.

[2] = Pharmacokinetics of nerinetide in rats with simultaneous alteplase; format: in vivo; conditions: rat
Procedure: as §1
Since the effect of nerinetide in the ESCAPE-NA1 trial was negated by alteplase, we next evaluated the effects of alteplase on pharmacokinetics (PK) of nerinetide in rats. Alteplase was administered at 0.9 mg/kg (human dose) and at 5.4 mg/kg (6 times the human dose) in an infusion that simulated the clinical protocol (10% bolus followed by a 60 min infusion of the remainder). Nerinetide was administered as an intravenous bolus at the start of the alteplase infusion at 7.6 mg/kg.

[3] = PK dose-separation study of nerinetide and alteplase in macaques; format: in vivo, cynomolgus macaques (Macaca fascicularis); conditions: macaque
Procedure: We conducted further PK studies to probe the necessary dose-separation interval to mitigate degradation. These studies were conducted in cynomolgus macaques (Macaca fascicularis) to maximize their relevance to humans. Nerinetide was given as a 10-minute intravenous infusion at a dose of 2.6 mg/kg. This dosing regimen was neuroprotective in macaques exposed to stroke by LVO (Cook et al., Nature 483, 213-217 (2012)) and was used in both the Phase 2 ENACT trial (Lancet Neurol 11, 942-950 (2012)) and the ESCAPE-NA1 trial (Lancet 395, 878-887 (2020)). We examined the scenarios in which alteplase administration was started simultaneously with the nerinetide infusion start, at the end of the 10-minute nerinetide infusion, or 10 minutes after the end of nerinetide infusion. Alteplase (1 mg/kg) was administered through a separate intravenous line as a 10% bolus, followed by an infusion of the remaining 90% over 1 hour, as per its clinical use.

[4] = target: second PDZ domain of PSD-95 protein (Homo sapiens, UniProt P78352); conditions: read-out: EC50 binding to second PDZ domain of PSD-95; cited from earlier work
Sequence of second PDZ domain of PSD-95 protein (P78352 160-246 limits assumed): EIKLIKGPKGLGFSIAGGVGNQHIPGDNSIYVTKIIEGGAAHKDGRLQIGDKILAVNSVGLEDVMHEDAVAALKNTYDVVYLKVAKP

[5] = system: embolic middle cerebral artery occlusion (eMCAO)
Procedure: Nerinetide (7.6 mg/kg) was administered as an intravenous bolus injection either 30 minutes before, or simultaneously with, the onset of a 60-minute infusion of rt-PA (5.4 mg/kg with a 10% bolus followed by 90% over 60 minutes). […] Experimental timeline. […] Hemispheric Infarct volume measurements 24 hours after eMCAo. […] Percentage of hemispheric brain swelling 24 hours after eMCAo and (D). Neurological scores 24 hours after eMCAo. Treatments were administered intravenously at the times indicated in (A). Bars represent mean±SD, with all individual data points plotted. Significant differences (in B) and (in C) are indicated with an asterisk when compared to the control group/nerinetide alone or with a number sign when compare to the thrombolytic agent (one-way ANOVA post hoc Tukey's correction for multiple comparisons test, *P<0.01 or #P <0.01, respectively) N=12-15 animals/group. Significant differences (in D) are indicated with an asterisk when compared to the control group/nerinetide alone or with a number sign when compare to the thrombolytic agent (Kruskal-Wallis analysis of variance on ranks with a post-hoc Dunn's correction for multiple comparisons test, *P<0.01 or #P<0.01, respectively).
To test this, male Sprague-Dawley rats (10-12 weeks old; 270-310 g; Charles River, Montreal, QC, Canada) were subjected to embolic middle cerebral artery occlusion (eMCAO), produced by the introduction of an autologous blood thrombus into the middle cerebral artery. Reperfusion was achieved by treatment with intravenous alteplase at a total dose of 5.4 mg/kg beginning at 90 minutes after ischemia onset. Alteplase was administered using the human injection protocol in which 10% of the total dose is given as a bolus, with the remainder 90% of the dose being given over a 60-minute infusion. The dose of alteplase was 6 times the human dose, in anticipation that the rat fibrinolytic system may be less sensitive to human recombinant tPA. […] Nerinetide was administered either 30 minutes prior to, or concurrently with, the start of the alteplase administration (FIG. 7A) at a dose of 7.6 mg/kg. […] Infarct volumes, hemispheric swelling and neurological scores were evaluated at 24 hours.

[6] = target: protein-protein interactions of PSD-95 with N-Methyl-D-Aspartate glutamate receptors (NMDARs); conditions: read-out: IC50 perturbing PSD-95 interaction with NMDARs; cited from earlier work
[7] = target: protein-protein interactions of PSD-95 with neuronal nitric oxide synthase (nNOS) (Homo sapiens, UniProt P78352); conditions: read-out: IC50 perturbing PSD-95 interaction with nNOS; cited from earlier work
Sequence of protein-protein interactions of PSD-95 with neuronal nitric oxide synthase (nNOS) (P78352 whole entry): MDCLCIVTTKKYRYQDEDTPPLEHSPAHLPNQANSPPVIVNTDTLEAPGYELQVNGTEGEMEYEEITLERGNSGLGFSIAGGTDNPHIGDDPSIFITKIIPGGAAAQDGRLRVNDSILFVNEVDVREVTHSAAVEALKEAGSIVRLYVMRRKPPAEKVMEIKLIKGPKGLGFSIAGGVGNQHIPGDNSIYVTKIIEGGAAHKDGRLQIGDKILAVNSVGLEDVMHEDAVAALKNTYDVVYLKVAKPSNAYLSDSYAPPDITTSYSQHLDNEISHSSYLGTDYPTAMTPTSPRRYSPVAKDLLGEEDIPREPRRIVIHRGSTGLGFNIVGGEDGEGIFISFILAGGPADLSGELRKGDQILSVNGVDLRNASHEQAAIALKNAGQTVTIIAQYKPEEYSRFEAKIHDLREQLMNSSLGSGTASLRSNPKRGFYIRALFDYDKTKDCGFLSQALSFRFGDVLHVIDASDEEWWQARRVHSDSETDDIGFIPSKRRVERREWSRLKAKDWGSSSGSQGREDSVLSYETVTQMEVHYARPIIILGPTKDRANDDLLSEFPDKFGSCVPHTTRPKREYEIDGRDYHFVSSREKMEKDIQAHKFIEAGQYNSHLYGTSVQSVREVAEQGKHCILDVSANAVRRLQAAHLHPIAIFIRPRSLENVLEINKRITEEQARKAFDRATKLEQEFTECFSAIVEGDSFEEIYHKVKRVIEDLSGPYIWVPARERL

[8] = system: patients with acute ischemic stroke (AIS) due to a large vessel arterial occlusion selected for endovascular thrombectomy; conditions: published primary trial result; cited from earlier work
[9] = nerinetide 7.6 mg/kg iv bolus with alteplase 0.9 mg/kg (human dose)
[10] = nerinetide 7.6 mg/kg iv bolus with alteplase 5.4 mg/kg started simultaneously
[11] = alteplase started at the end of the 10-minute nerinetide infusion
[12] = nerinetide 2.6 mg/kg 10-minute iv infusion, alteplase 1 mg/kg started simultaneously
[13] = nerinetide alone 7.6 mg/kg, 60 minutes after eMCAO, 24 hours
[14] = nerinetide at 60 minutes followed by alteplase 30 minutes later, 24 hours

YGRKKRRQRRRKLSSIESDV [nerinetide]
nerinetide content in rat plasma on addition of alteplase [1]: reduced the nerinetide content in rat plasma in a concentration-dependent manner
half-life ([2]; plasma, intravenous, 7.6 mg/kg, human equivalent concentrations (FIG. 6D)): 5 to 10 min
change of AUC of nerinetide [2, 9]: non-significant reduction
change of Cmax of nerinetide [2, 9]: non-significant reduction
lowering of mean AUC of nerinetide [2, 10]: 44%
lowering of mean Cmax of nerinetide [2, 10]: 49.5%
degradation of Cmax or AUC of nerinetide by alteplase ([3]; alteplase 10 minutes after the end of the 10-min nerinetide infusion): eliminated degradation of Cmax or AUC by alteplase to within the margin of measurement error; also recorded: substantially reduces cleavage of nerinetide
reduction in the AUC of nerinetide [3, 11]: 32.3%
reduction of the Cmax of nerinetide [3, 11]: 23.1%
reduction in the AUC of nerinetide [3, 12]: 53.9%
reduction of the Cmax of nerinetide [3, 12]: 47.4%
EC50 [4]: ~0.007 µM
beneficial effect of nerinetide on infarction volume ([5]; nerinetide administered concurrently with alteplase at 60 min after eMCAO): eliminated completely
infarction volume [5, 13]: 175±40 mm3
reduction of infarction volume [5, 13]: 59.2%
infarct volume reduction ([5]; nerinetide at 60 minutes followed by alteplase 30 minutes later): 70%
hemispheric swelling [5, 14]: reducing hemispheric swelling
neurological scores [5, 14]: improving neurological scores
IC50 [6]: 1 to 8 µM
IC50 [7]: ~0.2 µM
outcome in ESCAPE-NA1, nerinetide group that did not receive alteplase [8]: improved functional independence, reduced mortality, and reduced infarct volume
outcome in ESCAPE-NA1, patients that received alteplase [8]: did not benefit
